Assay results reported in patent US8551537B2, “Rhus verniciflua stokes extract having increased content of active flavonoid compound and method for preparing same” (AZI Company Ltd., priority 2010, dated 2013).

Test: Anti-oxidative activity, electron-donating ability by DPPH method
Assay type: biochemical
Protocol: A measurement of anti-oxidative activity was performed by using a method of measuring an electron-donating ability with DPPH method. DPPH is an abbreviation for 1,1-diphenyl-2-picrylhydrazyl, and is widely used a marker for measuring anti-oxidative activity due to its radical. The testing processes were as follows: (1) 2 ml of 0.1 mM DPPH (Sigma, D-9132) dissolved in ethanol was treated to 2 ml of sample dissolved in ethanol; (2) it was mixed for 10 minutes, and then maintained at a dark place for 30 minutes; (3) an absorbance was measured at 520 nm; and (4) the degree of anti-oxidative ability (electron-donating ability, EDA) was calculated. Vitamin E (Fluka, 95420) was used as a positive control group and Formula was as follow.
In the above formula, Cabs denotes an absorbance of a negative control group (in the case of treating only ethanol instead of sample) and Sabs denotes an absorbance of sample.

[1] = Table 1, comparison experiment between fustin and fisetin
[2] = Table 4, DPPH method, absorbance at 520 nm

O=c1c(O)c(-c2ccc(O)c(O)c2)oc2cc(O)ccc12 [Fisetin, 2-(3,4-dihydroxyphenyl)-3,7-dihydroxy-4H-chromen-4-one-hydrate]
Anti-oxidative Activity (IC50, ug/ml) [1]: 8 µg/mL
Anti-oxidative Activity (IC50, ug/ml) [2]: 7.8 µg/mL
antioxidative activity of fisetin as compared with that of fustin (ratio versus fustin): at least 5 times

O=C1c2ccc(O)cc2O[C@H](c2ccc(O)c(O)c2)[C@H]1O [Fustin, 2,3-Dihydrofisetin]
Anti-oxidative Activity (IC50, ug/ml) [1]: 33 µg/mL
Anti-oxidative Activity (IC50, ug/ml) [2]: 32 µg/mL
